According to patent publication US9938271B2, “Inhibitors of human immunodeficiency virus replication” (VIIV HEALTHCARE UK (NO. 5) LIMITED, priority 2014, dated 2018):

These compounds were tested on NL-RLuc virus (recombinant HIV NL4-3 with Renilla Luciferase gene) in MT-2 cells (assay: Inhibition of HIV replication (NL-RLuc luciferase reporter virus in MT-2 cells)). Details: MT2, 120 h, MT-2 cells infected with NL-RLuc virus, 5 days of incubation, luciferase readout, 10% FBS.
Assay type: cell-based
Description: Inhibition of HIV Replication:
A recombinant NL-RLuc proviral clone was constructed in which a section of the nef gene from NL4-3 was replaced with the Renilla Luciferase gene. This virus is fully infectious and can undergo multiple cycles of replication in cell culture. In addition, the luciferous reporter provides a simple and easy method for quantitating the extent of virus growth and consequently, the antiviral activity of test compounds. The plasmid pNLRLuc contains the proviral NL-Rluc DNA cloned into pUC 18 at the PvuII site. The NL-RLuc virus was prepared by transfection of 293T cells with the plasmid pNLRLuc. Transfections were performed using the LipofectAMINE PLUS kit from Invitrogen (Carlsbad, Calif.) according to the manufacturer and the virus generated was titered in MT-2 cells. For susceptibility analyses, the titrated virus was used to infect MT-2 cells in the presence of compound, and after 5 days of incubation, cells were processed and quantitated for virus growth by the amount of expressed luciferase. Assay media was RPMI 1640 supplemented with 10% heat inactivated fetal bovine serum (FBS), 100 units/ml penicillin G/100 units/ml streptomycin, 10 mM HEPES buffer pH 7.55 and 2 mM L-glutamine. The results from at least 2 experiments were used to calculate the EC50 values. Luciferase was quantitated using the Dual Luciferase kit from Promega (Madison, Wis.). Susceptibility of viruses to compounds was determined by incubation in the presence of serial dilutions of the compound. The 50% effective concentration (EC50) was calculated by using the exponential form of the median effect equation where (Fa)=1/[1+(ED50/drug conc.)^m] (Johnson V A, Byington R T. Infectivity Assay. In Techniques in HIV Research. ed. Aldovini A, Walker B D. 71-76. New York: Stockton Press. 1990). Activity equal to A refers to a compound having an EC50≤100 nM, while B and C denote compounds having an EC50 between 100 nM and 1 uM (B) or >1 uM (C).
In the case of Cc1cn2cc(-c3cccc(-c4ccccc4F)c3)nc2c(-c2cc(F)c3c(c2C)CCCO3)c1[C@H](OC(C)(C)C)C(=O)O [Example 3, (2S)-2-(tert-Butoxy)-2-(8-(8-fluoro-5-methylchroman-6-yl)-2-(2′-fluoro-[1,1′-biphenyl]-3-yl)-6-methylimidazo[1,2-a]pyridin-7-yl)acetic acid], the EC50 is reported as 11 nM. In the case of Cc1cn2cc(-c3cccc(-c4ccccc4F)c3)nc2c(-c2ccccc2F)c1[C@H](OC(C)(C)C)C(=O)O [Example 4, (2S)-2-(tert-Butoxy)-2-(2-(2′-fluoro-[1,1′-biphenyl]-3-yl)-8-(2-fluorophenyl)-6-methylimidazo[1,2-a]pyridin-7-yl)acetic acid], the EC50 is reported as 265 nM. Work on Cc1cn2cc(-c3cccc(-c4ccccc4F)c3)nc2c(-c2ccc3c(c2)CCCO3)c1[C@H](OC(C)(C)C)C(=O)O [Example 7, (S)-2-(tert-Butoxy)-2-(8-(chroman-6-yl)-2-(2′-fluoro[1,1′-biphenyl]-3-yl)-6-methylimidazo[1,2-a]pyridin-7-yl)acetic acid] yielded an EC50 of 19 nM. Work on Cc1cn2cc(-c3cccc(-c4ccc(F)c(F)c4F)c3)nc2c(-c2ccc3c(c2)CCCO3)c1[C@H](OC(C)(C)C)C(=O)O [Example 8, (S)-2-(tert-Butoxy)-2-(8-(chroman-6-yl)-6-methyl-2-(2′,3′,4′-trifluoro-[1,1′-biphenyl]-3-yl)imidazo[1,2-a]pyridin-7-yl)acetic acid] yielded an EC50 of 10 nM. Cc1cn2cc3nc2c(c1[C@H](OC(C)(C)C)C(=O)O)N1CCC(C)(CC1)OCCCC[C@H](C)Oc1cc(F)ccc1-c1cccc-3c1 [Example 9, (2S)-2-(tert-Butoxy)-2-[(22S)-18-fluoro-4,22,28-trimethyl-21,27-dioxa-1,6,8-triazahexacyclo[26.2.2.1^6,9.1^10,14.0^2,7.0^15,20]tetratriaconta-2,4,7,9(34),10(33),11,13,15,17,19-decaen-3-yl]acetic acid] showed an EC50 of 36 nM. Cc1cn2c(C(C)(C)C)c3nc2c(c1[C@H](OC(C)(C)C)C(=O)O)N1CCC(C)(CC1)OCCCC[C@H](C)Oc1cc(F)ccc1-c1cccc-3c1 [Example 10, (2S)-2-(tert-Butoxy)-2-[(22S)-34-tert-butyl-18-fluoro-4,22,28-trimethyl-21,27-dioxa-1,6,8-triazahexacyclo[26.2.2.1^6,9.1^10,14.0^2,7.0^15,20]tetratriaconta-2,4,7,9 (34),10(33),11,13,15,17,19-decaen-3-yl]acetic acid] was tested, and the EC50 was 148 nM.

Same assay, conditions: {}
Compound Cc1cn2cc(-c3cccc(-c4ccc(F)cc4)c3)nc2c(-c2cc(F)c3c(c2C)CCCO3)c1[C@H](OC(C)(C)C)C(=O)O (single isomer, unassigned) [Example 1] has an EC50 of 16 nM. Cc1cn2cc(-c3cccc(-c4ccc(F)cc4)c3)nc2c(-c2cc(F)c3c(c2C)CCCO3)c1[C@H](OC(C)(C)C)C(=O)O (single isomer, unassigned) [Example 2] was tested, and the EC50 was 187 nM. With Cc1ccccc1-c1cccc(-c2cn3cc(C)c([C@H](OC(C)(C)C)C(=O)O)c(-c4cc(F)c5c(c4C)CCCO5)c3n2)c1 (single isomer, unassigned) [Example 5] the EC50 was 34 nM. Cc1ccccc1-c1cccc(-c2cn3cc(C)c([C@H](OC(C)(C)C)C(=O)O)c(-c4cc(F)c5c(c4C)CCCO5)c3n2)c1 (single isomer, unassigned) [Example 6] gave an EC50 of 560 nM.
